In PubChem BioAssay (NCI):
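Each compound was tested at five concentrations against cells in 96-well plates for 48 hours. TGI marks complete inhibition of growth.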

Columns and labels:
Assay in all cases: NCI tumour cell line growth inhibition, 48 h
RXF-631 renal = tested on: RXF-631 renal
SNB-78 CNS = tested on: SNB-78 CNS
XF 498 CNS = tested on: XF 498 CNS
DMS 114 small cell lung = tested on: DMS 114 small cell lung
DMS 273 small cell lung = tested on: DMS 273 small cell lung

| Compound | TGI (RXF-631 renal) [µM] | TGI (SNB-78 CNS) [µM] | TGI (XF 498 CNS) [µM] | TGI (DMS 114 small cell lung) [µM] | TGI (DMS 273 small cell lung) [µM] |
| --- | --- | --- | --- | --- | --- |
| Cc1ccc(C)c(NC(=O)CCc2n[nH]c(=S)o2)c1 | > 100 | > 100 | > 100 | > 100 | > 100 |
| Cc1ccc(C)c2sc3cc(=O)ccc-3nc12 | > 100 | > 100 | – | > 100 | > 100 |
| Clc1ccc(CCN2CCOCC2)c(Cl)c1 | > 100 | > 100 | > 100 | > 100 | – |
| O=C1C=Cc2noc3cccc1c23 | 27.9 | 12 | – | 4.99 | 20.4 |
| N#CC(/C(=N\NC(N)=S)C(=O)NC1C2CC3CC(C2)CC1C3)c1ccc(Cl)cc1 (centres undefined) | > 100 | > 100 | > 100 | > 100 | > 100 |
| COc1cc(C(N)=O)c(OC)c(OC)c1OC | > 100 | > 100 | – | > 100 | > 100 |
| CCCCCCCCSC(SCCCCCCCC)=C1C(=O)N(c2ccccc2)N=C1C | > 100 | > 100 | – | 63.3 | > 100 |
| Nc1nc(Cl)cc(NCCCCCCCCCCNc2cc(Cl)nc(N)n2)n1 | 40.3 | > 100 | 8.86 | – | > 100 |
| OCC1CC2CC1C1(C2)OCCO1 (centres undefined) | > 100 | > 100 | > 100 | > 100 | > 100 |
| C[Si](C)(C)[C@@]1([Se]c2ccccc2)CC[C@@H]1C(=O)c1ccccc1 | > 100 | > 100 | – | > 100 | > 100 |
| O=C(O)C1C2CC3CC2CC31 (centres undefined) | > 100 | > 100 | > 100 | > 100 | > 100 |
| O=C(O)CNS(=O)(=O)c1ccc(NC(=O)c2cccc([N+](=O)[O-])c2)cc1 | > 100 | – | > 100 | – | > 100 |
| COc1ccc(-c2nc(N)nc(-c3cc(C)ccc3O)c2Cl)cc1 | > 100 | 81.9 | 64.3 | > 100 | > 100 |
| COc1ccccc1OCC(COC(=O)Nc1ccc(C)cc1)OC(=O)Nc1ccc(C)cc1 (centres undefined) | 47.2 | 91.6 | – | 29.3 | 32 |
| COc1ccc2c(c1)[n+]([O-])c(-c1ccc(Cl)c(Cl)c1)c(N)[n+]2[O-] | 82.3 | > 100 | – | 32.1 | 66.7 |
